Legend:
human μ opiate receptor = biological target: T1, human μ opiate receptor (Homo sapiens, UniProt P35372); assay: Affinity for the human μ opiate receptor ([3H]-naloxone displacement, CHO-K1 receptor membrane preparation, SPA); assay type: binding; conditions: test concentration of 1 μM
T1 construct: purchased PerkinElmer Life Sciences, Zaventem, Belgium RB-HOM; host or cells: CHO-K1 cells (membrane preparation)
In short: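 Test compounds, 1 nmol/l [3H]-naloxone and CHO-K1 membranes bearing the human μ opiate receptor are combined with WGA-SPA beads. After 90 minutes at room temperature, plates are centrifuged and radioactivity counted. Specific-binding inhibition at 1 μmol/l is given in percent.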

[1] = biological target: T2, bradykinin 1 receptor (B1R) of the rat (Rattus norvegicus, UniProt P97583); assay: Functional investigation on the rat bradykinin 1 receptor (B1R), Ca2+ FLIPR assay in CHO K1 rB1R cells; assay type: cell-based; conditions: B1R antagonism rat; test substance 10 μM; Ca2+ FLIPR, CHO K1 rB1R cells
T2 construct: expressed in transfected cells; host or cells: CHO K1 cells
T2 sequence (P97583 1-337): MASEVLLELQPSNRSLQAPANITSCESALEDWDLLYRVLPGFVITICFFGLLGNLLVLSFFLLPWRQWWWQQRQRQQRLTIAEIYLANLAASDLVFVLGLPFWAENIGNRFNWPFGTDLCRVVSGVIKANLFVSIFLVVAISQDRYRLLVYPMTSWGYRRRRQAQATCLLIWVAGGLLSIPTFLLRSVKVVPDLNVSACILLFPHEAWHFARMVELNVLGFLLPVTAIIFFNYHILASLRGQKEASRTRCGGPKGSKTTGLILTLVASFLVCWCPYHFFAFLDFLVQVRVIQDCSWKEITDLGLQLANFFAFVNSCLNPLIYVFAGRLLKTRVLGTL
In short: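 Fluo-4 Ca2+ readout, peak fluorescence. Stable CHO K1 transfectants; compound pre-incubated 10-20 min, then EC80 agonist—Lys-Des-Arg9-BK for hB1R, Des-Arg9-BK for rB1R. % inhibition vs maximal inhibition; IC50 from multiple concentrations, duplicate/triplicate, ≥2 independent runs.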

T1 sequence (P35372 whole entry): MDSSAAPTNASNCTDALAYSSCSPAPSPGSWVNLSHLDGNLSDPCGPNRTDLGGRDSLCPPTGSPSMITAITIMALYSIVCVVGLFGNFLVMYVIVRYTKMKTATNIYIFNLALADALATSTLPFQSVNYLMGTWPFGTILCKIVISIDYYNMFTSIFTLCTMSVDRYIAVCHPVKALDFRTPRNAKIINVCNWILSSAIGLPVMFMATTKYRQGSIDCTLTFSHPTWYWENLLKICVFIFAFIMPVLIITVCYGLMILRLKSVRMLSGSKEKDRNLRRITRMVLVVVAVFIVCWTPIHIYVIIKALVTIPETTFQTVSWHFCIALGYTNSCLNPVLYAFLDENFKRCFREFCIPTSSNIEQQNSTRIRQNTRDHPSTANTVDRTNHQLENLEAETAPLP

Structure (SMILES)	μ (binding on the μ opioid receptor, % inhibition) (human μ opiate receptor) [%]	B1R Ant. r [10 μM] % Inhibition [1] [%]
CN(C)C(c1ccc(F)cc1)C1CCC(CNC(=O)COCCN(C)S(=O)(=O)c2c(Cl)cc(Cl)cc2Cl)CC1 (stereo not drawn) [Example 404]	53	33
COc1cc(C)c(S(=O)(=O)N(CCOCC(=O)NC2CCC(C(c3cccc(F)c3)N(C)C)CC2)Cc2ccccc2)c(C)c1 (stereo not drawn) [Example 372]	59	22
COc1cc(C)c(S(=O)(=O)N2CCC(OCC(=O)NCC3CCC(C(c4ccc(F)cc4)N(C)C)CC3)C2)c(C)c1C (stereo not drawn) [Example 427]	50	8
CN(C)C(CCc1ccccc1)C1CCC(CNC(=O)COCCN(C)S(=O)(=O)c2ccc(Cl)cc2)CC1 (stereo not drawn) [Example 445]	44	46
COc1cc(C)c(S(=O)(=O)N2CCC(OCC(=O)NCC3CCC(C(c4ccc(Cl)cc4)N(C)C)CC3)C2)c(C)c1 (stereo not drawn) [Example 403]	52	84
COc1ccc(S(=O)(=O)N2CCCCC2COCC(=O)NCC2CCC(C(c3ccc(Cl)cc3)N(C)C)CC2)cc1OC (stereo not drawn) [Example 367]	60	2
CN(C)C(CCc1ccccc1)C1CCC(CNC(=O)COCC2CCCN2S(=O)(=O)c2ccc(Cl)c(Cl)c2)CC1 (stereo not drawn) [Example 415]	55	39
CN(C)C(c1ccc(Cl)cc1)C1CCC(CNC(=O)COC2CCN(S(=O)(=O)c3ccc(F)cc3)C2)CC1 (stereo not drawn) [Example 394]	56	21
COc1cc(C)c(S(=O)(=O)N2CCCC(OCC(=O)NC3CCC(C(c4ccc(F)cc4)N(C)C)CC3)C2)c(C)c1C (stereo not drawn) [Example 435]	48	14
CN(C)C(c1ccc(F)cc1)C1CCC(CNC(=O)COC2CCN(S(=O)(=O)c3cccc(C(F)(F)F)c3)C2)CC1 (stereo not drawn) [Example 402]	53	45
COc1cc(C)c(S(=O)(=O)N(CCOCC(=O)NCC2CCC(C(c3cccc(F)c3)N(C)C)CC2)Cc2ccccc2)c(C)c1C (stereo not drawn) [Example 414]	64	10
CN(C)C(c1ccc(F)cc1)C1CCC(NC(=O)COC2CCN(S(=O)(=O)c3ccc(F)cc3)C2)CC1 (stereo not drawn) [Example 381]	54	12
CN(C)C(c1cccc(F)c1)C1CCC(CCNC(=O)COC2CCN(S(=O)(=O)c3ccccc3)C2)CC1 (stereo not drawn) [Example 376]	62	12
CN(C)C(c1ccc(F)cc1)C1CCC(CCNC(=O)COCCN(C)S(=O)(=O)c2ccc(OC(F)(F)F)cc2)CC1 (stereo not drawn) [Example 446]	51	33
CN(C)C(c1ccc(F)cc1)C1CCC(NC(=O)COC2CCCN(S(=O)(=O)c3ccccc3)C2)CC1 (stereo not drawn) [Example 423]	47	−20
COc1ccc(S(=O)(=O)N2CCC(OCC(=O)NCCC3CCC(C(c4ccc(F)cc4)N(C)C)CC3)C2)cc1OC (stereo not drawn) [Example 430]	56	21
COc1cc(C)c(S(=O)(=O)N2CCC(OCC(=O)NCC3CCC(C(c4ccc(Cl)cc4)N(C)C)CC3)C2)c(C)c1C (stereo not drawn) [Example 428]	49	8
CN(C)C(c1ccc(Cl)cc1)C1CCC(CCNC(=O)COCCN(C)S(=O)(=O)c2c(Cl)cc(Cl)cc2Cl)CC1 (stereo not drawn) [Example 442]	54	11
COc1cc(C)c(S(=O)(=O)N2CCN(CCOCC(=O)NCC3CCC(C(c4ccc(F)cc4)N(C)C)CC3)CC2)c(C)c1C (stereo not drawn) [Example 366]	55	16
COc1cc(C)c(S(=O)(=O)N(C)CCOCC(=O)NCCC2CCC(C(c3ccc(F)cc3)N(C)C)CC2)c(C)c1 (stereo not drawn) [Example 392]	57	103
Cc1ccc(S(=O)(=O)N2CCC(OCC(=O)NC3CCC(C(c4ccc(F)cc4)N(C)C)CC3)C2)cc1 (stereo not drawn) [Example 371]	57	5

Structure (SMILES)	μ (binding on the μ opioid receptor, % inhibition) (human μ opiate receptor) [%]	B1R Ant. r [10 μM] % Inhibition [1] [%]
CN(C)C(c1ccc(Cl)cc1)C1CCC(CCNC(=O)COC2CCN(S(=O)(=O)c3cccc(C(F)(F)F)c3)C2)CC1 (stereo not drawn) [Example 431]	45	34
CN(C)C(c1ccc(F)cc1)C1CCC(NC(=O)COC2CCN(S(=O)(=O)c3ccc(Cl)cc3)C2)CC1 (stereo not drawn) [Example 370]	59	3
COc1cc(C)c(S(=O)(=O)N(CCOCC(=O)NCC2CCC(C(c3cccc(F)c3)N(C)C)CC2)Cc2ccccc2)c(C)c1 (stereo not drawn) [Example 388]	65	16
COc1ccc(S(=O)(=O)N2CCCC2COCC(=O)NCCC2CCC(C(c3ccc(F)cc3)N(C)C)CC2)cc1 (stereo not drawn) [Example 409]	54	48
CN(C)C(c1ccc(F)cc1)C1CCC(CNC(=O)COCC2CCCN(S(=O)(=O)c3ccccc3)C2)CC1 (stereo not drawn) [Example 424]	39	20
CN(C)C(c1ccc(Cl)cc1)C1CCC(CCNC(=O)COC2CCN(S(=O)(=O)c3ccccc3)CC2)CC1 (stereo not drawn) [Example 443]	45	−1
CN(C)C(c1ccc(Cl)cc1)C1CCC(CCNC(=O)COC2CCCCC2N(C)S(=O)(=O)c2ccc(Cl)c(Cl)c2)CC1 (stereo not drawn) [Example 410]	50	6
Cc1cc(C)c(S(=O)(=O)N2CCC(OCC(=O)NCC3CCC(C(c4ccc(F)cc4)N(C)C)CC3)C2)c(C)c1 (stereo not drawn) [Example 432]	56	45
COc1ccc(S(=O)(=O)N2CCCCC2CCOCC(=O)NCCC2CCC(C(c3ccc(Cl)cc3)N(C)C)CC2)cc1 (stereo not drawn) [Example 383]	59	33
CN(C)C(c1ccc(F)cc1)C1CCC(CNC(=O)COC2CCN(S(=O)(=O)c3ccc(Cl)cc3Cl)C2)CC1 (stereo not drawn) [Example 391]	56	32
COc1ccc(S(=O)(=O)N2Cc3ccccc3CC2COCC(=O)NCC2CCC(C(CCc3ccccc3)N(C)C)CC2)cc1 (stereo not drawn) [Example 373]	62	12
Cc1cc(C)c(S(=O)(=O)N2CCC(OCC(=O)NCC3CCC(C(c4ccc(Cl)cc4)N(C)C)CC3)C2)c(C)c1 (stereo not drawn) [Example 393]	55	39
CN(C)C(c1cccc(F)c1)C1CCC(CCNC(=O)COC2CCN(S(=O)(=O)c3ccccc3)CC2)CC1 (stereo not drawn) [Example 444]	56	−5
CN(C)C(c1ccc(F)cc1)C1CCC(NC(=O)COCCN(C)S(=O)(=O)c2ccc(Cl)cc2)CC1 (stereo not drawn) [Example 406]	51	12
CN(C)C(c1ccc(Cl)cc1)C1CCC(CCNC(=O)COC2CCCN(S(=O)(=O)c3ccccc3)C2)CC1 (stereo not drawn) [Example 395]	54	15
CN(C)C(c1ccc(F)cc1)C1CCC(CNC(=O)COCCN(C)S(=O)(=O)c2ccc(Cl)cc2)CC1 (stereo not drawn) [Example 399]	52	29
CN(C)C(c1ccc(F)cc1)C1CCC(NC(=O)COCCN(C)S(=O)(=O)c2cccc(C(F)(F)F)c2)CC1 (stereo not drawn) [Example 438]	51	−10
CN(C)C(c1ccc(F)cc1)C1CCC(CCNC(=O)COCCN(C)S(=O)(=O)c2c(Cl)cc(Cl)cc2Cl)CC1 (stereo not drawn) [Example 386]	63	20
CN(C)C(c1cccc(F)c1)C1CCC(CCNC(=O)COC2CCN(S(=O)(=O)c3ccc(F)cc3)C2)CC1 (stereo not drawn) [Example 407]	54	10
CN(C)C(c1ccc(Cl)cc1)C1CCC(CNC(=O)COC2CCN(S(=O)(=O)c3ccc(Cl)cc3)C2)CC1 (stereo not drawn) [Example 384]	55	25
CN(C)C(c1ccc(F)cc1)C1CCC(CNC(=O)COCCN(C)S(=O)(=O)c2cccc(C(F)(F)F)c2)CC1 (stereo not drawn) [Example 390]	55	16
